Reference: ChEMBL document CHEMBL1132011, “The synthesis of ketomethylene pseudopeptide analogues of dipeptide aldehyde inhibitors of calpain” (Bioorg Med Chem Lett, 1999)
Non-standard residues stand in square brackets, D forms with d. Residues, ends and D or L forms follow the SMILES beside them. ξ: configuration not given here. *: point of attachment. ξF = NC(Cc1ccccc1)C(=O)O; Cbz = O=C(OCc1ccccc1)*

Target: T1, Calpain-1 catalytic subunit (Gallus gallus, UniProt P00789)
T1 sequence (P00789 whole entry): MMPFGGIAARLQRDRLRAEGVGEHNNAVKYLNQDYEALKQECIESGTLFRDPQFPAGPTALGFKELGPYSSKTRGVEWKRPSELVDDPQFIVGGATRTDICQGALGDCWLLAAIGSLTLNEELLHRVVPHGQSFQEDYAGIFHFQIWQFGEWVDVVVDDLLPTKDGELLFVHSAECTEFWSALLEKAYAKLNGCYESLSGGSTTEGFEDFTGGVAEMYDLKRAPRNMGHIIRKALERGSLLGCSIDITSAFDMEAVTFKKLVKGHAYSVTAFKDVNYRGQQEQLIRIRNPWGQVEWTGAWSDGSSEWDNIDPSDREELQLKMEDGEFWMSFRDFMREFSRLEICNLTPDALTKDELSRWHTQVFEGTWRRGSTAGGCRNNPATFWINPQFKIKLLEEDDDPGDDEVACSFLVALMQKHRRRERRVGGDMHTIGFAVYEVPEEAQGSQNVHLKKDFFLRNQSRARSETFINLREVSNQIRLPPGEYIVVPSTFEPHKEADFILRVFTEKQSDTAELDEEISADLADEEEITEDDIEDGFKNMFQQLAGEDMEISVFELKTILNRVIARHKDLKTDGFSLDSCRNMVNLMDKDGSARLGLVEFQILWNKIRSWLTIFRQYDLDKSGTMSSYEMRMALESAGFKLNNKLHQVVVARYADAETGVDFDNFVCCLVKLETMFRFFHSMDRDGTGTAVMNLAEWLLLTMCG
Experiment: Inhibitory activity against chicken gizzard smooth muscle calpain

| SMILES | Ki [nM] |
| --- | --- |
| CC(C=O)CC(=O)[C@@H](NC(=O)OCc1ccccc1)C(C)C (stereo partly drawn) | 45000 |
| CC(C)[C@H](NC(=O)OCc1ccccc1)C(=O)C[C@H](C=O)Cc1ccccc1 | 2500 |
| CC(C)[C@H](NC(=O)OCc1ccccc1)C(=O)NC(C=O)Cc1ccccc1 (stereo partly drawn) (Cbz-Val-[ξF]-aldehyde) | 10 |
